In publication PMC9267128, “New 2-[(4-Amino-6-N-substituted-1,3,5-triazin-2-yl)methylthio]-N-(imidazolidin-2-ylidene)-4-chloro-5-methylbenzenesulfonamide Derivatives, Design, Synthesis and Anticancer Evaluation” (International Journal of Molecular Sciences, 2022):

Legend:
[1] = test system: HCT-116 (colon cancer); test: MTT cell viability assay, HCT-116; format: cell-based, human; details: Homo sapiens, HCT-116, 72 h, MTT assay, 72 h of incubation
Procedure: (§1) Analysis was performed using an MTT assay after 72 h of incubation.
(§2) All chemicals, if not stated otherwise, were obtained from Sigma–Aldrich (St. Louis, MO, USA). The HCT-116 cell line was purchased from ATCC (ATCC-No: CCL-247), while the MCF-7, HeLa and HaCaT cell lines were purchased from Cell Lines Services (Eppelheim, Germany). Cells were cultured in Dulbecco’s modified Eagle’s medium (DMEM) supplemented with 10% fetal bovine serum, 2 mM glutamine, 100 units/mL penicillin and 100 µg/mL streptomycin. Cultures were maintained in a humidified atmosphere with 5% carbon dioxide at 37 °C in an incubator (Heraceus, HeraCell).
(§3) Cell viability was examined using the MTT [3-(4,5-dimethylthiazol-2-yl)-2,5-diphenyltetrazolium bromide] assay. Cells were seeded in 96-well plates at a density of 3 × 10^3 cells/well and treated for 72 h with the tested compounds in the concentration range of 1–100 µM. Then, MTT (0.5 mg/mL) was added to the medium and cells were further incubated for 2 h at 37 °C. In the next stage, cells were lysed with DMSO and the absorbance of the formazan solution was measured at 550 nm with a plate reader (1420 multilabel counter, Victor, Jügesheim, Germany). The experiment was performed in triplicate. Values are expressed as the mean ± SD of at least three independent experiments.

[2] = test system: MCF-7 (breast cancer); test: MTT cell viability assay, MCF-7; format: cell-based, human; details: Homo sapiens, MCF7, 72 h, MTT assay, 72 h of incubation
Procedure: (§4) Compounds 20–162 were evaluated in vitro for their effects on the viability of three cancer cell lines: HCT-116 (colon cancer), MCF-7 (breast cancer) and HeLa (cervical cancer), as well as the non-cancerous keratinocyte cell line (HaCaT). […] Analysis was performed using an MTT assay after 72 h of incubation.
as §2
as §3, with “experiments. Cisplatin was used as a positive control.” for “experiments.”

[3] = test system: HeLa (cervical cancer); test: MTT cell viability assay, HeLa; format: cell-based, human; details: Homo sapiens, HeLa; MTT assay, 72 h of incubation
Procedure: as §1, §2, §3

[4] = test system: HaCaT (human keratinocyte cell line); test: MTT cell viability assay, non-cancerous HaCaT; format: cell-based; details: Homo sapiens, HaCaT, 72 h, 72 h of incubation, non-cancerous keratinocytes
Procedure: as §4, §2
as §3, with “experiments. Cisplatin was used as a positive control.” for “experiments.”

SMILES	IC50 [1]	IC50 [2]	IC50 [3]	IC50 [4]
Cc1cc(S(=O)(=O)N=C2NCCN2Cc2ccc(F)cc2)c(SCc2nc(N)nc(N3CCN(c4cccc(Cl)c4)CC3)n2)cc1Cl [Compound 97]	6 ± 0.2 µM	7 ± 0.4 µM	9 ± 0.3 µM	24 ± 1 µM
Cc1cc(S(=O)(=O)N=C2NCCN2Cc2ccc(F)cc2)c(SCc2nc(N)nc(N3CCN(c4ccc(Cl)c(Cl)c4)CC3)n2)cc1Cl [Compound 98]	7 ± 0.1 µM	7 ± 0.4 µM	8 ± 0.4 µM	18 ± 1 µM
Cc1cc(S(=O)(=O)N=C2NCCN2Cc2ccc(F)cc2)c(SCc2nc(N)nc(N3CCN(c4ccc(F)c(Cl)c4)CC3)n2)cc1Cl [Compound 99]	17 ± 1 µM	17 ± 1 µM	18 ± 0.5 µM	30 ± 1 µM
COc1ccc(N2CCN(c3nc(N)nc(CSc4cc(Cl)c(C)cc4S(=O)(=O)N=C4NCCN4Cc4ccc(F)cc4)n3)CC2)cc1 [Compound 100]	8 ± 0.2 µM	7 ± 0.1 µM	8 ± 0.5 µM	18 ± 1 µM
Cc1cc(S(=O)(=O)N=C2NCCN2Cc2ccc(F)cc2)c(SCc2nc(N)nc(N3CCN(Cc4ccccc4)CC3)n2)cc1Cl [Compound 101]	12 ± 0.5 µM	11 ± 0.2 µM	10 ± 0.6 µM	21 ± 1 µM
Cc1cc(S(=O)(=O)N=C2NCCN2Cc2ccc(Br)cc2)c(SCc2nc(N)nc(N3CCc4ccccc43)n2)cc1Cl [Compound 102]	8 ± 0.4 µM	7.5 ± 0.4 µM	17 ± 1 µM	33 ± 1 µM
Cc1cc(S(=O)(=O)N=C2NCCN2Cc2ccc(Br)cc2)c(SCc2nc(N)nc(N3CCCc4ccccc43)n2)cc1Cl [Compound 103]	7 ± 0.1 µM	6.5 ± 0.3 µM	16 ± 0.5 µM	28 ± 1 µM
Cc1cc(S(=O)(=O)N=C2NCCN2Cc2ccc(Br)cc2)c(SCc2nc(N)nc(Nc3ccccc3)n2)cc1Cl [Compound 104]	17 ± 1 µM	13 ± 0.4 µM	25 ± 1 µM	44 ± 2 µM
Cc1cc(S(=O)(=O)N=C2NCCN2Cc2ccc(Br)cc2)c(SCc2nc(N)nc(N(C)c3ccc(Cl)cc3)n2)cc1Cl [Compound 105]	13 ± 0.8 µM	10 ± 0.2 µM	17 ± 0.5 µM	35 ± 2 µM
Cc1cc(S(=O)(=O)N=C2NCCN2Cc2ccc(Br)cc2)c(SCc2nc(N)nc(N3CCN(c4ccccc4)CC3)n2)cc1Cl [Compound 106]	8.5 ± 0.1 µM	6.5 ± 0.4 µM	82 ± 4 µM	110 ± 4 µM
Cc1cc(S(=O)(=O)N=C2NCCN2Cc2ccc(Br)cc2)c(SCc2nc(N)nc(N3CCN(c4ccc(F)cc4)CC3)n2)cc1Cl [Compound 107]	8.5 ± 0.3 µM	7 ± 0.2 µM	58 ± 2 µM	76 ± 4 µM
Cc1cc(S(=O)(=O)N=C2NCCN2Cc2ccc(Br)cc2)c(SCc2nc(N)nc(N3CCN(c4cccc(C(F)(F)F)c4)CC3)n2)cc1Cl [Compound 108]	10.5 ± 0.5 µM	11 ± 0.5 µM	11 ± 0.5 µM	24 ± 1 µM
Cc1cc(S(=O)(=O)N=C2NCCN2Cc2ccc(Br)cc2)c(SCc2nc(N)nc(N3CCN(c4ccc(Cl)cc4)CC3)n2)cc1Cl [Compound 109]	23 ± 1 µM	22 ± 0.5 µM	36 ± 2 µM	55 ± 2 µM
Cc1cc(S(=O)(=O)N=C2NCCN2Cc2ccc(Br)cc2)c(SCc2nc(N)nc(N3CCN(c4ccc(Cl)c(Cl)c4)CC3)n2)cc1Cl [Compound 110]	20 ± 0.6 µM	23 ± 1 µM	85 ± 5 µM	123 ± 6 µM
Cc1cc(S(=O)(=O)N=C2NCCN2Cc2cccc(C(F)(F)F)c2)c(SCc2nc(N)nc(N3CCCc4ccccc43)n2)cc1Cl [Compound 112]	15 ± 0.3 µM	17 ± 1 µM	15.5 ± 1 µM	29 ± 1 µM
